Several values for one entry are separate records, joined by “and”; a condition that tells them apart may be missing. Identical values can stand only once. Like-named read-outs stand apart in the source and are kept apart here.
Columns and labels:
[1] = type: in vivo, mice
Text: Two groups of mice are used.

human M-5 melanoma cells = experiment: Initial rate of cell proliferation (IRCP), M-5 cells; type: cell-based
Description: The study was conducted on two continuous cell cultures growing in the form of a monolayer in a tissue culture (on murine B-16 melanoma cells and human M-5 melanoma cells). […] Dicarbamine (D) was transferred into stock solution (1.000 μM), sterilized through filters with 0.22 μm pore diameter and then diluted to concentrations 0.01 and 1.0 μM.
(§1) The effect of preparations on cells was assessed on the basis of initial rate of cell proliferation (IRCP). This index (IRCP), which is usually called colony rate growth, was determined by numbering the number of cells in micro colonies during the first days following affection in “test” (with preparations) and “control” (without preparations) dishes, by analyzing 50 colonies in each of them. Each “point” included […] three Petri dishes with growing cell colonies in adding specific concentrations of preparations under study. Growth rate of colonies (in %) was calculated according to the formula: […]
(§2) Cell numbers in micro colonies were calculated for every “point”. Toxicity of preparations in the selected range of concentrations was judged by cell survival, which was determined by the ratio between numbers of the colonies grown in “test” and “control” dishes.

[2] = tested on: murine B-16 melanoma cells; experiment: Initial rate of cell proliferation (IRCP), B-16 cells; type: cell-based
Description: The study was conducted on two continuous cell cultures growing in the form of a monolayer in a tissue culture (on murine B-16 melanoma cells and human M-5 melanoma cells). IN was administered at concentrations 70-700 IU/ml. Dicarbamine (D) was transferred into stock solution (1.000 μM), sterilized through filters with 0.22 μm pore diameter and then diluted to concentrations 0.01 and 1.0 μM.
as §1, §2

human melanoma Mel-6 = experiment: Inoculated human melanoma Mel-6 growth dynamics in nude mice; type: in vivo
Description: The study was conducted on 10-12 week old thymus free “nude” female Balb/C mice weighting 20-22 grams (breeding of the RCRC named after N. N. Blokhin of the RAMS). The human melanoma strain Mel-6 earlier obtained from primary clinical material was taken from the bank of tumor strains of the RCRC of the RAMS for transplantation to thymus free mice.
Dicarbamine at the single doses 1.5 mg/kg and 4.5 mg/kg was p.o. administered daily to two mice groups for 3 weeks from the moment of the tumor development (from day 15 to day 36 from the tumor transplantation).
Measurement of the tumor was done at days 18, 25, 33, 39, 46 and 53 from the transplantation. The effect of Dicarbamine was assessed on the basis of the tumor growth dynamics for 8 weeks in multiple measurements of tumor volumes “V” according to the formula: […]
wherein L is length in mm, s is width in mm; and h is height in mm.
The ratio between volumes of tumors Vt/Vt−1 expressed as a percentage was then calculated and statistically processed according to the Student's method to calculate statistically significant difference.

[3] = tested on: stage III-IV ovarian cancer; experiment: Efficacy of therapy after two chemotherapy courses; type: in vivo, human
Description: Efficacy of therapy was assessed in groups of patients following two courses of the chemotherapy with or without Dicarbamine according to the above described scheme. Efficacy was assessed according to the generally accepted parameters: CR—complete remission, PR—partial remission, SB—stabilization; and Progr. —progression.

[4] = IN 70.0 IU/ml + D 1.0 μM, 72 hours

O=C(O)CCCC(=O)NCCc1c[nH]cn1 [Dicarbamine]
Cellularity of bone marrow (number of cells) ([1]; CPH 200 mg/kg (Dicarbamine group: 0.5 mg/kg 5 days prior and 5 days after), day 3): 14.5 ± 3.43 millions | Cellularity of bone marrow (number of cells) ([1]; day 5 after CPH): 21.55 ± 1.92 millions | Cellularity of bone marrow (number of cells) ([1]; day 7 after CPH): 32.35 ± 3.57 millions | Cellularity of bone marrow (number of cells) ([1]; day 10 after CPH): 33.8 ± 3.85 millions | Cellularity of bone marrow (number of cells) ([1]; day 13 after CPH): 32.6 ± 5.22 millions | Cellularity of bone marrow (number of cells) ([1]; day 17 after CPH): 28.25 ± 3.02 millions | Cellularity of bone marrow (number of cells) ([1]; day 21 after CPH): 30.4 ± 2.75 millions | Initial rate of cell proliferation (% cells/colony relative to the control) (human M-5 melanoma cells; D 0.01 μM, 48 hours): 82.4% and 84.2% | Initial rate of cell proliferation (human M-5 melanoma cells; D 0.01 μM, 72 hours): 73.6% | Initial rate of cell proliferation (human M-5 melanoma cells; D 0.01 μM, 96 hours): 70.2% | Initial rate of cell proliferation (human M-5 melanoma cells; D 1.0 μM, 48 hours): 69.0% | Initial rate of cell proliferation (human M-5 melanoma cells; D 1.0 μM, 72 hours): 50.0% | Initial rate of cell proliferation (human M-5 melanoma cells; D 1.0 μM, 96 hours): 49.1% | Initial rate of cell proliferation (human M-5 melanoma cells; IN 7.0 IU/ml + D 0.01 μM, 48 hours): 79.1% | Initial rate of cell proliferation (human M-5 melanoma cells; IN 7.0 IU/ml + D 0.01 μM, 72 hours): 49.1% | Initial rate of cell proliferation (human M-5 melanoma cells; IN 7.0 IU/ml + D 0.01 μM, 96 hours): 46.9% | Initial rate of cell proliferation (human M-5 melanoma cells; IN 7.0 IU/ml + D 1.0 μM, 48 hours): 54.7% | Initial rate of cell proliferation (human M-5 melanoma cells; IN 7.0 IU/ml + D 1.0 μM, 72 hours): 36.9% | Initial rate of cell proliferation (human M-5 melanoma cells; IN 7.0 IU/ml + D 1.0 μM, 96 hours): 33.3% | Initial rate of cell proliferation (human M-5 melanoma cells; IN 70.0 IU/ml + D 0.01 μM, 48 hours): 40.5% | Initial rate of cell proliferation (human M-5 melanoma cells; IN 70.0 IU/ml + D 0.01 μM, 72 hours): 34.9% | Initial rate of cell proliferation (human M-5 melanoma cells; IN 70.0 IU/ml + D 0.01 μM, 96 hours): 31.0% and 31.7% | Initial rate of cell proliferation (human M-5 melanoma cells; IN 70.0 IU/ml + D 1.0 μM, 48 hours): 30.7% | Initial rate of cell proliferation (human M-5 melanoma cells; [4]): 24.0% and 24.5% | Initial rate of cell proliferation (human M-5 melanoma cells; IN 70.0 IU/ml + D 1.0 μM, 96 hours): 23.9% | toxicity according to the survival index (human M-5 melanoma cells; M-5 cells): does not show toxicity | toxicity according to the survival index ([2]; B-16 cells): does not show toxicity | Initial rate of cell proliferation ([2]; D 0.01 μM, 48 hours): 52.9% | Initial rate of cell proliferation ([2]; D 0.01 μM, 72 hours): 61.0% | Initial rate of cell proliferation ([2]; D 1.0 μM, 48 hours): 44.6% | Initial rate of cell proliferation ([2]; D 1.0 μM, 72 hours): 44.6% and 43.6% | Initial rate of cell proliferation [2, 4]: 26.1% | Initial rate of cell proliferation ([2]; IN 700.0 IU/ml + D 0.01 μM, 48 hours): 24.9% | Initial rate of cell proliferation ([2]; IN 700.0 IU/ml + D 0.01 μM, 72 hours): 22.0% | Initial rate of cell proliferation ([2]; IN 700.0 IU/ml + D 1.0 μM, 48 hours): 21.5% | Initial rate of cell proliferation ([2]; IN 700.0 IU/ml + D 1.0 μM, 72 hours): 16.0% | V (tumor volume) M + m (human melanoma Mel-6; 1.5 mg/kg p.o. daily days 15-36, 18 day after inoculation): 21.8 + 12.8 | percent change in tumor volume Vt/Vt−1 (human melanoma Mel-6; 1.5 mg/kg, 18 day): 100% | V (tumor volume) M + m (human melanoma Mel-6; 1.5 mg/kg, 25 day): 77.5 + 46.4 | percent change in tumor volume Vt/Vt−1 (human melanoma Mel-6; 1.5 mg/kg, 25 day): 302.0 ± 186.0% | V (tumor volume) M + m (human melanoma Mel-6; 1.5 mg/kg, 33 day): 342.0 + 142.0 | percent change in tumor volume Vt/Vt−1 (human melanoma Mel-6; 1.5 mg/kg, 33 day): 428.0 ± 313.1% | V (tumor volume) M + m (human melanoma Mel-6; 1.5 mg/kg, 39 day): 435.0 + 187.0 | percent change in tumor volume Vt/Vt−1 (human melanoma Mel-6; 1.5 mg/kg, 39 day): 23.2 ± 22.1% | V (tumor volume) M + m (human melanoma Mel-6; 1.5 mg/kg, 46 day): 662.0 + 417.0 | percent change in tumor volume Vt/Vt−1 (human melanoma Mel-6; 1.5 mg/kg, 46 day): 23.9 + 31.0% | V (tumor volume) M + m (human melanoma Mel-6; 1.5 mg/kg, 53 day): 783.0 + 423.0 | percent change in tumor volume Vt/Vt−1 (human melanoma Mel-6; 1.5 mg/kg, 53 day): 18.6 + 54.0% | V (tumor volume) M + m (human melanoma Mel-6; 4.5 mg/kg p.o. daily days 15-36, 18 day): 91.9 + 54.4 | percent change in tumor volume Vt/Vt−1 (human melanoma Mel-6; 4.5 mg/kg, 18 day): 100% | V (tumor volume) M + m (human melanoma Mel-6; 4.5 mg/kg, 25 day): 266.0 + 198.0 | percent change in tumor volume Vt/Vt−1 (human melanoma Mel-6; 4.5 mg/kg, 25 day): 166.0±93.0% | V (tumor volume) M + m (human melanoma Mel-6; 4.5 mg/kg, 33 day): 852.0 + 495.0 | percent change in tumor volume Vt/Vt−1 (human melanoma Mel-6; 4.5 mg/kg, 33 day): 276.0 ± 104.0% | V (tumor volume) M + m (human melanoma Mel-6; 4.5 mg/kg, 39 day): 1129.0 + 600.0 | percent change in tumor volume Vt/Vt−1 (human melanoma Mel-6; 4.5 mg/kg, 39 day): 39.8 ± 27.3% | V (tumor volume) M + m (human melanoma Mel-6; 4.5 mg/kg, 46 day): 1354.0 + 735.0 | percent change in tumor volume Vt/Vt−1 (human melanoma Mel-6; 4.5 mg/kg, 46 day): 19.6 ± 17.5% | V (tumor volume) M + m (human melanoma Mel-6; 4.5 mg/kg, 53 day): 1550.0 + 780.0 | percent change in tumor volume Vt/Vt−1 (human melanoma Mel-6; 4.5 mg/kg, 53 day): 4.2 + 22.5% | delay in maximum tumor mass gain in comparison with the control (human melanoma Mel-6; in vivo): 7 days | CR [3]: 26.6% | CR, number of patients [3]: 4 | PR [3]: 46.6% | PR, number of patients [3]: 7 | Progr. [3]: 13.3% | Progr., number of patients [3]: 2 | SB [3]: 13.5% | SB, number of patients [3]: 2 | tumor growth control (CR+PR) [3]: 73.2% | Terms of death (CPH 50 + Cysplatin 2 mg/kg): no | Total leukocyte number (CPH 50 + Cysplatin 2 mg/kg, day 0): 11.30 ± 2.30 thousand in mm^3 | Total leukocyte number (CPH 50 + Cysplatin 2 mg/kg, day 3): 6.70 ± 1.15 thousand in mm^3 | Total leukocyte number (CPH 50 + Cysplatin 2 mg/kg, day 5): 17.00 ± 5.17 thousand in mm^3 | Total leukocyte number (CPH 50 + Cysplatin 2 mg/kg, day 7): 14.50 ± 2.00 thousand in mm^3 | Total leukocyte number (CPH 50 + Cysplatin 2 mg/kg, day 21): 12.40 ± 0.99 thousand in mm^3 | Terms of death (CPH 100 + Cysplatin 4 mg/kg): no | Total leukocyte number (CPH 100 + Cysplatin 4 mg/kg, day 0): 11.30 ± 2.30 thousand in mm^3 | Total leukocyte number (CPH 100 + Cysplatin 4 mg/kg, day 3): 4.14 ± 0.60 thousand in mm^3 | Total leukocyte number (CPH 100 + Cysplatin 4 mg/kg, day 5): 11.40 ± 1.10 thousand in mm^3 | Total leukocyte number (CPH 100 + Cysplatin 4 mg/kg, day 7): 14.90 ± 1.32 thousand in mm^3 | Total leukocyte number (CPH 100 + Cysplatin 4 mg/kg, day 21): 11.80 ± 1.32 thousand in mm^3 | Total leukocyte number (CPH 200 + Cysplatin 8 mg/kg i.p. once (Dicarbamine group: 0.5 mg/kg daily 20 days), day 0): 11.30 ± 2.30 thousand in mm^3 | Total leukocyte number (CPH 200 + Cysplatin 8 mg/kg, day 3): 2.32 ± 0.49 thousand in mm^3 | Total leukocyte number (CPH 200 + Cysplatin 8 mg/kg, day 5): 6.60 ± 0.90 thousand in mm^3 | Total leukocyte number (CPH 200 + Cysplatin 8 mg/kg, day 7): 10.40 ± 1.54 thousand in mm^3 | Total leukocyte number (mouse, in vivo): 12.30 ± 1.56 thousand in mm^3

— patent US7759313B2, “Induction method for cell differentiation” (Obschetstvo S Ogranichennoi Otvetstvennostiyu …, priority 2002, dated 2010)
